Our source for the IC50 values is ChEMBL document CHEMBL1124428, “In vitro metabolic transformations of vinblastine: oxidations catalyzed by peroxidase” (J Med Chem, 1989).

Values after ≈ are worked out from the molar mass of the structure shown.

The experiment in a line: Inhibitory concentration against human T-cell leukemic cell line ([…]) in vitro. The format is functional.
As for `CCC(=O)C[C@@H]1CN(C=O)CCc2c([nH]c3ccccc23)[C@@](C(=O)OC)(c2cc3c(cc2OC)N(C)[C@H]2[C@](O)(C(=O)OC)[C@H](OC(C)=O)[C@]4(CC)C=CCN5CC[C@]32[C@@H]54)C1` [CATHARININE], the concentration for half-maximal inhibition (IC50) (in general, the concentration at which inhibition is half-maximal) is 7.7 µg/mL (≈ 9.33 µM).

`CC[C@]1(O)C[C@@H]2CN(CCc3c([nH]c4ccccc34)[C@@](C(=O)OC)(c3cc4c(cc3OC)N(C)[C@H]3[C@@](O)(C(=O)OC)[C@H](OC(C)=O)[C@]5(CC)C=CCN6CC[C@]43[C@@H]65)C2)C1` [VINBLASTINE] displayed an IC50 of 0.1 µg/mL (≈ 0.123 µM).

With `CC[C@]1(O)C[C@H]2CN(CCc3c([nH]c4ccccc34)[C@@](C(=O)OC)(c3cc4c(cc3OC)N(C=O)[C@H]3[C@@](O)(C(=O)OC)[C@H](OC(C)=O)[C@]5(CC)C=CCN6CC[C@]43[C@@H]65)C2)C1` [VINCRISTINE], the IC50 came out at 0.025 µg/mL (≈ 0.0303 µM).

On to `CC[C@]12CN3CCc4c([nH]c5ccccc45)[C@@](C(=O)OC)(c4cc5c(cc4OC)N(C)[C@H]4[C@@](O)(C(=O)OC)[C@H](OC(C)=O)[C@]6(CC)C=CCN7CC[C@]54[C@@H]76)C[C@@H](C3)[C@H]1O2.CC[C@]12CN3CCc4c([nH]c5ccccc45)[C@@](C(=O)OC)(c4cc5c(cc4OC)N(C)[C@H]4[C@@](O)(C(=O)OC)[C@H](OC(C)=O)[C@]6(CC)C=CCN7CC[C@]54[C@@H]76)C[C@@H](C3)[C@H]1O2.O=S(=O)(O)O` [VINLEUROSINE SULFATE], for which the IC50 was 0.4 µg/mL. Compared with the last compound, the IC50 is about 16-fold higher.
